Source: publication PMC6009961, “Novel 1-(2-pyrimidin-2-yl)piperazine derivatives as selective monoamine oxidase (MAO)-A inhibitors” (Journal of Enzyme Inhibition and Medicinal Chemistry, 2017)
Entries after “also recorded” stand apart in the source; their conditions may differ.

How the values were obtained:
Type in all cases: biochemical
[1] = target: T1, human recombinant MAO-B (Homo sapiens, UniProt P27338); assay: MAO activity assay, fluorimetric, kynuramine substrate (MAO-B)
T1 construct: purchased Sigma-Aldrich Chemicals (St. Louis, MO)
T1 sequence (P27338 1-520): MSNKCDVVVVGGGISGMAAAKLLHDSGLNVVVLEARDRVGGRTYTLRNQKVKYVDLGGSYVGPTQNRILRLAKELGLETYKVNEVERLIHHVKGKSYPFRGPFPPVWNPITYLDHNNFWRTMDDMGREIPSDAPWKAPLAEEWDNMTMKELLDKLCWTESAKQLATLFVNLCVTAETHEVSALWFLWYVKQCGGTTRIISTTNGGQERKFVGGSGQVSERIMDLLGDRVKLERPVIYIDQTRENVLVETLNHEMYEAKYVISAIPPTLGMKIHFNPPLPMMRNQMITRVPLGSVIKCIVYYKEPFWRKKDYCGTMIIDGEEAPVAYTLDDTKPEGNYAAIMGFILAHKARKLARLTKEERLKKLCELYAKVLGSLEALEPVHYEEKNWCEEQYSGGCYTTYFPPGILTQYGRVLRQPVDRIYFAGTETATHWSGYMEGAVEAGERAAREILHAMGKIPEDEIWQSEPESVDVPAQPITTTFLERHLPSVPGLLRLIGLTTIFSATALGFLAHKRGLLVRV

[2] = target: T2, MAO-A enzyme (Homo sapiens, UniProt P21397); assay: MAO activity assay, fluorimetric, kynuramine substrate (MAO-A); details: for MAO-A versus MAO-B selectivity: from inhibition rates at 10^−4 M
T2 construct: purchased Sigma-Aldrich Chemicals (St. Louis, MO)
T2 sequence (P21397 1-527): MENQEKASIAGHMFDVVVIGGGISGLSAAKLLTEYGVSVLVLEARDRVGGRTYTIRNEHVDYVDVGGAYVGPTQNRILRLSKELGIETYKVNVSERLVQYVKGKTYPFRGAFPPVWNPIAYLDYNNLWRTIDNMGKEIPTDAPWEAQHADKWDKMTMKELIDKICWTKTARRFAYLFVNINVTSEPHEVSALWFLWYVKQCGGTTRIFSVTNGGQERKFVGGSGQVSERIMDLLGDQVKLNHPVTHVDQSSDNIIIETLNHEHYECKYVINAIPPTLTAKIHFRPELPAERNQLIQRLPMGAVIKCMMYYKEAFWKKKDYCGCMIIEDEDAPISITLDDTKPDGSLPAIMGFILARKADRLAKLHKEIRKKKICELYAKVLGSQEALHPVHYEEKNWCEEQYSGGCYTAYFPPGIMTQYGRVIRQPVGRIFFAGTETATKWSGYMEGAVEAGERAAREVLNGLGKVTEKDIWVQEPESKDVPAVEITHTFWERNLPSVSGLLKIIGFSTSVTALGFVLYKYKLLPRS

[3] = target: T2, MAO-A enzyme; assay: MAO-A enzyme kinetics (Lineweaver-Burk plots)
Procedure: The nature of MAO-A inhibition, caused by this compound, was investigated by the graphical analysis of steady-state inhibition data.
Figure 2. […] Substrate (kynuramine) concentrations used: 40, 20, 10, 5, 2.5 and 1.25 μM. 1/V: 1/velocity of reaction [1/(nmoles/min/mg protein)], 1/S: 1/substrate concentration (1/μM).
The same materials were used in MAO enzyme kinetic assay. The compound 2e was prepared at IC50 concentration and then added to the wells (100 µL/well). Stock solution (25 mM) of kynuramine was diluted to final concentrations of 40, 20, 10, 5, 2.5 and 1.25 µM and then added to the wells (50 µL/well). After MAO-A enzyme was added to the plate (50 µL/well), incubation period at 37 °C for 20 min was started. The plate was read at 310/340 nm excitation/emission wavelength pair[31]. Control measurement without inhibitor was also determined simultaneously. The results were analyzed in Lineweaver–Burk plots using Microsoft Office Excel 2013.

Row | Structure (SMILES) | IC50 [1] [µM] | MAO B inhibition % ([1]; 10^−3 M) [%] | MAO B inhibition % ([1]; 10^−4 M) [%] | IC50 [2] [µM] | MAO-A inhibition % ([2]; 10^−3 M) [%] | MAO-A inhibition % ([2]; 10^−4 M) [%] | MAO-A inhibition % ([2]; 10^−5 M) [%] | MAO-A inhibition % ([2]; 10^−6 M) [%] | MAO-A inhibition % ([2]; 10^−7 M) [%] | MAO-A inhibition % ([2]; 10^−8 M) [%] | MAO-A inhibition % ([2]; 10^−9 M) [%] | MAO-A versus MAO-B selectivity [2] | nature of MAO-A inhibition ([3]; Lineweaver–Burk plots, kynuramine 40-1.25 μM) | Vmax ([3]; nonlinear regression, MAO-A, kynuramine)
1 | Cc1ccc(N2CCN(C(=S)SCC(=O)N3CCN(c4ncccn4)CC3)CC2)cc1 [Compound 2g, 2-[4-(Pyrimidin-2-yl)piperazin-1-yl]-2-oxoethyl 4-(p-tolyl)piperazine-1-carbodithioate] | > 1000 | 18.20 ± 0.82 | 10.76 ± 0.33 | > 1000 | 37.50 ± 1.42 | 33.33 ± 0.99 |  |  |  |  |  |  |  | 
2 | O=C(CSC(=S)N1CCN(c2ccccc2)CC1)N1CCN(c2ncccn2)CC1 [Compound 2f, 2-[4-(Pyrimidin-2-yl)piperazin-1-yl]-2-oxoethyl 4-phenylpiperazine-1-carbodithioate] | > 100 |  | 31.15 ± 0.67 | > 1000 | 33.33 ± 1.30 | 31.25 ± 0.88 |  |  |  |  |  |  |  | 
3 | Cc1ccc(CN2CCN(C(=S)SCC(=O)N3CCN(c4ncccn4)CC3)CC2)cc1 [Compound 2l, 2-[4-(Pyrimidin-2-yl)piperazin-1-yl]-2-oxoethyl 4-(4-methylbenzyl)piperazine-1-carbodithioate] |  |  | 15.00 ± 0.68 | > 1000 | 32.31 ± 0.86 | 15.38 ± 0.61 |  |  |  |  |  |  |  | 
4 | O=C(CSC(=S)N1CCN(c2ccc(Cl)cc2)CC1)N1CCN(c2ncccn2)CC1 [Compound 2h, 2-[4-(Pyrimidin-2-yl)piperazin-1-yl]-2-oxoethyl 4-(4-chlorophenyl)piperazine-1-carbodithioate] | > 1000 | 40.98 ± 1.20 | 31.15 ± 1.07 | > 1000 | 13.45 ± 0.38 | 6.70 ± 0.22 |  |  |  |  |  |  |  | 
5 | O=C(CSC(=S)N1CCN(CCO)CC1)N1CCN(c2ncccn2)CC1 [Compound 2c, 2-[4-(Pyrimidin-2-yl)piperazin-1-yl]-2-oxoethyl 4-(2-hydroxyethyl)piperazine-1-carbodithioate] | > 1000 | 12.30 ± 0.48 | 7.39 ± 0.25 | > 1000 | 15.88 ± 0.55 | 9.27 ± 0.27 |  |  |  |  |  |  |  | 
6 | O=C(CSC(=S)N1CCN(c2ccc(F)cc2)CC1)N1CCN(c2ncccn2)CC1 [Compound 2i, 2-[4-(Pyrimidin-2-yl)piperazin-1-yl]-2-oxoethyl 4-(4-fluorophenyl)piperazine-1-carbodithioate] | > 1000 | 44.26 ± 1.13 | 27.86 ± 0.66 | > 100 |  | 39.58 ± 0.95 |  |  |  |  |  |  |  | 
7 | O=C(CSC(=S)N1CCN(C(c2ccccc2)c2ccccc2)CC1)N1CCN(c2ncccn2)CC1 [Compound 2m, 2-[4-(Pyrimidin-2-yl)piperazin-1-yl]-2-oxoethyl 4-benzhydrylpiperazine-1-carbodithioate] | > 100 |  | 40.00 ± 0.99 | 24.1 |  |  | 33.65 ± 0.93 | 28.16 ± 0.87 | 21.88 ± 0.74 | 15.77 ± 0.68 | 10.62 ± 0.41 | selective MAO-A inhibitory activity; also recorded: selective MAO-A enzyme inhibitors |  | 
8 | CN(C)CCN1CCN(C(=S)SCC(=O)N2CCN(c3ncccn3)CC2)CC1 [Compound 2d, 2-[4-(Pyrimidin-2-yl)piperazin-1-yl]-2-oxoethyl 4-(2-(dimethylamino)ethyl)piperazine-1-carbodithioate] | > 1000 | 14.37 ± 0.58 | 8.40 ± 0.23 | > 1000 | 18.74 ± 0.52 | 7.39 ± 0.30 |  |  |  |  |  |  |  | 
9 | O=C(CSC(=S)N1CCN(c2ncccn2)CC1)N1CCN(c2ncccn2)CC1 [Compound 2n, 2-[4-(Pyrimidin-2-yl)piperazin-1-yl]-2-oxoethyl 4-(pyrimidin-2-yl)piperazine-1-carbodithioate] | > 1000 | 29.51 ± 0.74 | 22.95 ± 0.69 | > 1000 | 31.25 ± 0.94 | 25.00 ± 0.62 |  |  |  |  |  |  |  | 
10 | CCN1CCN(C(=S)SCC(=O)N2CCN(c3ncccn3)CC2)CC1 [Compound 2b, 2-[4-(Pyrimidin-2-yl)piperazin-1-yl]-2-oxoethyl 4-ethylpiperazine-1-carbodithioate] | > 1000 | 10.08 ± 0.42 | 5.65 ± 0.14 | > 1000 | 11.52 ± 0.38 | 6.86 ± 0.21 |  |  |  |  |  |  |  | 
11 | O=C(CSC(=S)N1CCN(c2ccc([N+](=O)[O-])cc2)CC1)N1CCN(c2ncccn2)CC1 [Compound 2j, 2-[4-(Pyrimidin-2-yl)piperazin-1-yl]-2-oxoethyl 4-(4-nitrophenyl)piperazine-1-carbodithioate] | > 100 |  | 40.98 ± 0.94 | 23.1 |  |  | 42.45 ± 1.18 | 29.70 ± 0.72 | 20.19 ± 0.64 | 16.05 ± 0.40 | 11.53 ± 0.29 | selective MAO-A inhibitory activity; also recorded: selective MAO-A enzyme inhibitors | mix-typed inhibitor | 5.34
12 | O=C(CSC(=S)N1CCN(C2CCCCC2)CC1)N1CCN(c2ncccn2)CC1 [Compound 2e, 2-[4-(Pyrimidin-2-yl)piperazin-1-yl]-2-oxoethyl 4-cyclohexylpiperazine-1-carbodithioate] | > 1000 | 12.60 ± 0.45 | 5.22 ± 0.18 | > 1000 | 16.75 ± 0.42 | 5.90 ± 0.15 |  |  |  |  |  |  |  | 
13 | CN1CCN(C(=S)SCC(=O)N2CCN(c3ncccn3)CC2)CC1 [Compound 2a, 2-[4-(Pyrimidin-2-yl)piperazin-1-yl]-2-oxoethyl 4-methylpiperazine-1-carbodithioate] | > 1000 | 10.23 ± 0.31 | 5.37 ± 0.22 | > 1000 | 12.84 ± 0.59 | 7.33 ± 0.19 |  |  |  |  |  |  |  | 
14 | O=C(CSC(=S)N1CCN(Cc2ccccc2)CC1)N1CCN(c2ncccn2)CC1 [Compound 2k] | > 1000 | 13.08 ± 0.56 | 5.87 ± 0.22 | > 1000 | 19.81 ± 0.59 | 6.15 ± 0.18 |  |  |  |  |  |  |  | 
